# Results taken from patent US20070032488A1, “6-Membered aryl and heteroaryl derivatives for treating viruses” (Genelabs Technologies, Inc., priority 2005, published 2007).
# Tested on: HCV replicon in ET (Huh-lucubineo-ET) cell line (screening for HCV RNA dependent RNA polymerase)
# Test: Replicon Assay (luciferase reporter, ET cell line)
# Type: cell-based
# Details: Hepatitis C virus; tested at 12.5 μM; luciferase activity in ET replicon cells, relative to no compound control; read-out: % inhibition (of replication)
# Experimental: A cell line, ET (Huh-lucubineo-ET) was used for screening of compounds of the present invention for HCV RNA dependent RNA polymerase. The ET cell line was stably transfected with RNA transcripts harboring a I389luc-ubi-neo/NS3-3′/ET; replicon with firefly luciferase-ubiquitin-neomycin phosphotransferase fusion protein and EMCV-IRES driven NS3-5B polyprotein containing the cell culture adaptive mutations (E1202G; T1280I; K1846T) (Krieger at al, 2001 and unpublished). The ET cells were grown in DMEM, supplemented with 10% fetal calf serum, 2 mM Glutamine, Penicillin (100 IU/mL)/Streptomycin (100 μg/mL), 1× nonessential amino acids, and 250 μg/mL G418 (“Geneticin”). They were all available through Life Technologies (Bethesda, Md.). The cells were plated at 0.5-1.0×10^4 cells/well in the 96 well plates and incubated for 24 hrs before adding nucleoside analogs. […] Luciferase activity was measured 48-72 hours later by adding a lysis buffer and the substrate (Catalog number Glo-lysis buffer E2661 and Bright-Glo leuciferase system E2620 Promega, Madison, Wis.). Cells should not be too confluent during the assay. Percent inhibition of replication was plotted relative to no compound control. Under the same condition, cytotoxicity of the compounds was determined using cell proliferation reagent, WST-1 (Roche, Germany). The compounds showing potent antiviral activities, but no significant cytotoxicities were chosen for further evaluation. For these determinations, a 10-point, 2-fold serial dilution for each compound was used which spans a concentration range of 1000 fold. IC50 and TC50 values were calculated by fitting % inhibition at each concentration to the following equation: % inhibition=100%/[(IC50/[I])b+1] where b is Hill's coefficient.
# The % inhibition at a particular concentration was determined using the following equation: % Inhibition=100−[100*(Lum with inhibitor-bg)/(Lum with no inhibitor-bg)]
# where bg was the background with no replicon cell, and Lum was the luminescence intensity of the reporter luciferase gene.
row,SMILES,inhibition at 12.5 µM [%]
1,"Cc1nc(C)c(-c2ccc3cc(-c4c(CC(=O)N5CCOCC5)cc(C(=O)NC5(C(=O)O)CCCC5)cc4C4CCCCC4)ccc3n2)s1 [Compound 10, 1-[3-cyclohexyl-4-[2-(2,4-dimethyl-thiazol-5-yl)-quinolin-6-yl]-5-(2-morpholin-4-yl-2-oxo-ethyl)-benzoylamino]-cyclopentanecarboxylic acid]",51
2,"Cc1nc(C)c(-c2ccc3cc(-c4c(N)cc(C(=O)O)cc4C4CCCCC4)ccc3n2)s1 [Compound 8, 3-amino-5-cyclohexyl-4-[2-(2,4-dimethyl-thiazol-5-yl)-quinolin-6-yl]-benzoic acid]",54
3,"COCCOc1ccc(-c2ccc(Cl)cc2)c(-c2ccc3cc(-c4ccc(C(=O)O)cc4C4CCCCC4)ccc3n2)c1 [Compound 1.8b, 3-cyclohexyl-4-(2-(3-(2-methoxyethoxy)-6-(4′-chlorophenyl)phenyl)quinolin-6-yl)benzoic acid]",94
4,"Cc1nc(C)c(-c2ccc3cc(-c4c(/C=C/C(=O)N5CCOCC5)cc(C(=O)O)cc4C4CCCCC4)ccc3n2)s1 [Compound 2.9a, 3-cyclohexyl-4-(2-(2,4-dimethylthiazol-5-yl)quinolin-6-yl)-5-((E)-3-morpholino-3-oxoprop-1-enyl)benzoic acid]",65
5,"Cc1nc(C)c(-c2ccc3cc(-c4c(/C=C/C(=O)N5CCCCC5)cc(C(=O)O)cc4C4CCCCC4)ccc3n2)s1 [Compound 2.9b, 3-cyclohexyl-4-(2-(2,4-dimethylthiazol-5-yl)quinolin-6-yl)-5-((E)-3-oxo-3-(piperidin-1-yl)prop-1-enyl)benzoic acid]",80
6,"COc1ccc(-c2ccc(Cl)cc2)c(-c2ccc3cc(-c4ccc(C(=O)O)cc4C4CCCCC4)ccc3n2)c1 [Compound 1.8a, 3-cyclohexyl-4-(2-(3-methoxy-6-(4′-chlorophenyl)phenyl)quinolin-6-yl)benzoic acid]",89
7,"Cc1nc(C)c(-c2ccc3cc(-c4c(C5CCCCC5)cc(C(=O)O)cc4[N+](=O)[O-])ccc3n2)s1 [Compound 7, 3-cyclohexyl-4-[2-(2,4-dimethyl-thiazol-5-yl)-quinolin-6-yl]-5-nitro-benzoic acid]",30
8,"Cc1nc(C)c(-c2ccc3cc(-c4c(CC(=O)N5CCOCC5)cc(C(=O)O)cc4C4CCCCC4)ccc3n2)s1 [Compound 9, 3-cyclohexyl-4-[2-(2,4-dimethyl-thiazol-5-yl)-quinolin-6-yl]-5-(2-morpholin-4-yl-2-oxo-ethyl)-benzoic acid]",6.4
9,"Cc1nc(C)c(-c2ccc3cc(-c4c(CC(=O)N5CCOCC5)cc(-c5nnn[nH]5)cc4C4CCCCC4)ccc3n2)s1 [Compound 11, 2-[3-cyclohexyl-2-[2-(2,4-dimethyl-thiazol-5-yl)-quinolin-6-yl]-5-(1H-tetrazol-5-yl)-phenyl]-1-morpholin-4-yl-ethanone]",27
10,"C#Cc1cc(C(=O)O)cc(C2CCCCC2)c1-c1ccc2nc(-c3sc(C)nc3C)ccc2c1 [Compound 4.4b, 3-cyclohexyl-5-ethynyl-4-(2-(2,4-dimethylthiazol-5-yl)quinolin-6-yl)benzoic acid]",87
